Experimental data published in patent US12319752B2, “Heparin-binding cationic peptide self-assembling peptide amphiphiles useful against drug-resistant bacteria” (priority 2016, dated 2025).
Residues, ends and D or L forms follow the SMILES beside them. *: point of attachment. Palmitoyl = CCCCCCCCCCCCCCCC(=O)*

What was measured:
[1] = Critical micelle concentration (CMC) by Nile Red fluorescence; assay type: physicochemical; conditions: in water, Nile Red dye
Source text: First, the solvatochromic probe Nile Red was used to examine the threshold concentrations for the spontaneous aggregation induced by hydrophobic collapse of peptides. Once the supramolecular structures of PA self-assemble in water at their CMC, the Nile Red dye can be solubilized in the hydrophobic cores of the PA assemblies, displaying an enhanced fluorescent intensity. Consequently, the fluorescent intensity maxima of Nile Red were at the emission wavelength of 630 nm in the solutions of CVK-PA and ACA-PA, whereas the emission wavelength was located at 660 nm in the Bi-Cardin peptide solutions (FIG. 4A-4D). […] To estimate the CMC of each peptide, the corrected fluorescent intensity (If,corrected) of Nile Red at its emission wavelength for each peptide solution was calculated using equation: If,corrected=If,sample−If,water, where If,sample is the average of the triplicate fluorescent intensity measurements in the sample and If,water is the fluorescent intensity of Nile Red in water without the peptide. The measurements of the corrected fluorescent intensity were plotted against the log 10 values of concentration of each peptide, then the CMC value was determined at the point of intersection of the plot of log peptide concentration and fluorescent intensity of Nile Red.

[2] = test system: MRSA; test: Bacterial growth inhibition (growth curves, OD562, 20 h); assay type: cell-based, methicillin-resistant S. aureus (MRSA, ATCC #43300)
Description: Gram-positive (S. aureus and MRSA) and Gram-negative (E. coli and MDR E. coli) bacteria were incubated with peptide concentrations ranging from 20 to 100 μM, and time-lapsed bacterial growth was monitored for 20 hours by determining the optical density at 562 nm (O.D. 562 nm). […] At the highest concentration tested (100 μM), the time to exponential growth phase of S. aurues was delayed by about 18 h (FIG. 5B), and was prolonged by almost 13 h for MRSA (FIG. 5A), while bacteria incubated without ACA-PA entered the exponential growth phase within 4 h. Gram-positive bacteria were also susceptible to the ACA-PA even below their CMC.
The MIC values of ACA-PA towards drug-resistant bacteria were determined after 24 h of incubation (Table 2).
This assay was performed to investigate the inhibitory effects of each peptide against Gram-positive Staphylococcus aureus (S. aureus, ATCC #25923) and methicillin-resistant S. aureus (MRSA, ATCC #43300), as well as Gram-negative Escherichia coli (E. coli, ATCC #25922), and multidrug-resistant E. coli (MDR E. coli, ATCC #BAA-2471). In all experiments, solutions of each peptide at the concentrations from 20 μM to 100 μM in 3% Tryptic Soy Broth (TSB) media were freshly prepared. A single colony of bacteria was isolated from a stock agar plate and cultured overnight in 4 mL of 3% TSB on a shaking incubator set at 200 rpm and 37° C. The bacteria culture was adjusted to an optical density at 562 nm (OD562) to about 0.52 (10^9 cells/mL), and the resulting bacteria suspension was subsequently diluted to about 10^6 colony forming units (CFU) per mL in each sample. The control samples were bacteria incubated in TSB media without peptides. The bacteria were incubated inside a spectrophotometer (Spectra-Max Paradigm, Molecular Devices, Sunnyvale, CA) at 37° C. under static conditions for 20 h, and the bacterial growth curves were measured in terms of turbidity at OD562 every 2 minutes. The normalized OD562 values of samples were calculated by subtracting the […].

[3] = test system: MDR E. coli; test: Live/dead bacterial viability assay; assay type: cell-based, multidrug-resistant E. coli (MDR E. coli); conditions: 4 h
Source text: To further investigate bacteria viability after treatment with ACA-PA, the live/dead assay was used to confirm the antibacterial actions of ACA-PA. Dead bacteria with disrupted membrane were stained a first color, whereas live bacteria were stained with a second color fluorescence. A large amount of robust MRSA bacteria in the untreated control sample appeared a second color and in spherical shapes (FIG. 10A). […] This antibacterial activity was dependent on the concentration of PA, yet was not determined by peptide self-assembly. Nonetheless, Gram-negative MDR E. coli responded to the treatment of ACA-PA differently from Gram-positive MRSA.
The live/dead bacterial viability assay was conducted to further assess the bactericidal efficacy of ACA-PA using the LIVE/DEAD BacLight Bacterial Viability Kits (Kits 71007, Molecular Probes, Eugene, OR, USA). MRSA and MDR E. coli bacteria (100 μl, 10^6 CFU/mL) were incubated with 80 μM and 40 μM of peptide in 3% TSB media at 37° C. for 4 h on a 96-well plate, and the control samples of bacteria were incubated in 3% TSB media only. […] The live bacteria stained fluorescent a second color (SYTO9 nucleic acid stain), whereas the dead bacteria with disrupted membranes stained fluorescent a first color (propidium iodide, PI).

**Q.** With CCCCCCCCCCCCCCCC(=O)N[C@H](C(=O)N[C@H](C(=O)N[C@H](C(=O)N[C@H](C(=O)N[C@@H](CCCCN)C(=O)N[C@@H](CCCCN)C(=O)N[C@@H](CCCCN)C(=O)N[C@@H](CCCCN)C(=O)NCC(=O)N[C@@H](C)C(=O)N[C@@H](CCCCN)C(=O)N[C@@H](CCCCN)C(=O)N[C@@H](C)C(=O)N[C@@H](CCCNC(=N)N)C(=O)N[C@@H](C)C(=O)N[C@@H](C)C(=O)N[C@@H](CCCCN)C(=O)N[C@@H](CCCCN)C(=O)N[C@@H](C)C(=O)N[C@@H](CCCNC(=N)N)C(=O)N[C@@H](C)C(=O)O)C(C)C)C(C)C)C(C)C)C(C)C [ACA-PA, C16-V4K4G(AKKARA)2 (SEQ ID NO: 7)] (Palmitoyl-VVVVKKKKGAKKARAAKKARA-OH; N-terminus and C-terminus assumed) as the compound, how does the CMC [1] read?
**A.** The CMC was 45.7 µM.

**Q.** What about the “prolongation of time to exponential growth phase” value ([2]; 100 μM) of the same compound?
**A.** Its value is roughly 13 h.

**Q.** And the bacterial growth inhibition ([2]; 20 to 100 μM, 20 h)?
**A.** The bacterial growth inhibition was “remarkably inhibited the proliferation”.

**Q.** And the “susceptibility of bacterial growth” value ([2]; below the CMC)?
**A.** The value was “susceptible”.

**Q.** And the “bacterial viability (live/dead staining)” value ([3]; 40 μM)?
**A.** The value was “unable to induce considerable cell mortality”.

**Q.** What about the “bacterial viability (live/dead staining)” value ([3]; 80 μM) of the same compound?
**A.** The value was “enhanced the number of dead bacteria drastically”.
